Measurements published in US8927500B2, “Peptidomimetic macrocycles” (Aileron Therapeutics, Inc., priority 2012, dated 2015).
pIC50, pKi: −log10 of the molar value. Where two headings read alike, the source gives them in different places. Where a SMILES comes first, the peptide text is derived from it. Bridges are numbered along the chain shown (N, C = ends). [ ]: non-standard residue; d: D form. R8 = C=CCCCCCC[C@@](C)(N)C(=O)O; Cba = N[C@@H](CC1CCC1)C(=O)O; S5 = C=CCCC[C@](C)(N)C(=O)O

What was measured:
MDM2 = MDM2 (Homo sapiens, UniProt Q00987); experiment: Competitive fluorescence polarization assay for MDM2; format: binding; conditions: competitive FP assay, MDM2; for pIC50: read-out: IC50 (MDM2)
MDM2, sequence (Q00987 1-125): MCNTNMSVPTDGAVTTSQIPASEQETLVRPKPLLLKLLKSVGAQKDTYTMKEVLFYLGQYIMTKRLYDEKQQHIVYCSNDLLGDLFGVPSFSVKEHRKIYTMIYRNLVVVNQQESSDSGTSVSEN

MDMX = target: T1, MDMX (Homo sapiens, UniProt O15151); experiment: Competitive fluorescence polarization assay for MDMX; format: binding; conditions: competitive FP assay; for pIC50: read-out: IC50 (MDMX); for pKi: read-out: Ki (MDMX)
T1 sequence (O15151 1-125): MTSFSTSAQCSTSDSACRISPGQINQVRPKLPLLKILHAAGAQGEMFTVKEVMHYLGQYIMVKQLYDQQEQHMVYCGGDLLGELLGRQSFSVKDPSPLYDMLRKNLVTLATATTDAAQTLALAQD
Experimental: Dilute MDMX (In-house, 40 kD) into FP buffer (High salt buffer-200 mM Nacl, 5 mM CHAPS, pH 7.5.) to make 300 nM (2×) working stock solution. • 2. […] Dilute 1 mM (in 100% DMSO) of FAM labeled linear peptide with DMSO to 100 μM (dilution 1:10). Then, dilute from 100 μM to 10 μM with water (dilution 1:10) and then dilute with FP buffer from 10 μM to 40 nM (dilution 1:250). This is the working solution which will be a 10 nM concentration in well (dilution 1:4). Keep the diluted FAM labeled peptide in the dark until use. • 4. […] Dilute 10 mM (in 100% DMSO) with DMSO to 5 mM (dilution 1:2). Then, dilute from 5 mM to 500 μM with H2O (dilution 1:10) and then dilute with FP buffer from 500 μM to 20 μM (dilution 1:25). […] Transfer 10 μl of serial diluted unlabeled peptides to each well which is filled with 20 μl of 300 nM of protein. • 7. Add 10 μl of 10 nM (4×) of FAM labeled peptide into each well and incubate for 3 hr to read.

SMILES | pIC50 (MDM2) | pKi (MDM2; read-out: Ki (MDM2)) | pIC50 (MDMX) | pKi (MDMX) | pKi (MDM2; Ki (MDM2))
CC(=O)N[C@@H](CC(C)C)C(=O)N[C@H](C(=O)N[C@@H](Cc1ccccc1)C(=O)N[C@]1(C)CCCCCCC=CCCC[C@@](C)(C(=O)N[C@@H](C)C(=O)N[C@@H](C)C(=O)NC(C)(C)C(=O)N[C@H](C(N)=O)C(C)C)NC(=O)[C@H](CC(C)C)NC(=O)[C@H](CCC(N)=O)NC(=O)[C@H](C)NC(=O)[C@H](Cc2c[nH]c3ccccc23)NC(=O)[C@H](Cc2ccc(O)cc2)NC(=O)[C@H](C)NC1=O)[C@@H](C)O (single isomer, unassigned) [compound 23] | 6.00 to 7.00 | 7.00 to 8.00 |  |  | 
CC(=O)N[C@@H](CC(C)C)C(=O)N[C@H](C(=O)N[C@@H](Cc1ccccc1)C(=O)N[C@]1(C)CCCCCCC=CCCC[C@@](C)(C(=O)N[C@@H](C)C(=O)N[C@@H](C)C(=O)NC(C)(C)C(=O)N[C@H](C(N)=O)C(C)C)NC(=O)[C@H](CC(C)C)NC(=O)[C@H](CCC(N)=O)NC(=O)[C@H](C)NC(=O)[C@H](Cc2c[nH]c3ccccc23)NC(=O)[C@H](Cc2ccc(O)cc2)NC(=O)[C@H](C)NC1=O)[C@@H](C)O (single isomer, unassigned) [compound 24] | 7.00 to 8.00 | > 8.00 |  |  | 
CCCC[C@H](NC(=O)[C@H](C)NC(=O)[C@H](C)NC(=O)[C@]1(C)CCCC=CCCCCCC[C@@](C)(NC(=O)[C@H](Cc2ccccc2)NC(=O)[C@@H](NC(=O)[C@H](CC(C)C)NC(C)=O)[C@@H](C)O)C(=O)N[C@@H](C)C(=O)N[C@@H](Cc2ccc(O)cc2)C(=O)N[C@@H](Cc2c[nH]c3ccccc23)C(=O)N[C@@H](C)C(=O)N[C@@H](CCC(N)=O)C(=O)N[C@@H](CC(C)C)C(=O)N1)C(=O)N[C@@H](C)C(N)=O (single isomer, unassigned) [compound 68] | 6.00 to 7.00 | 7.00 to 8.00 | 6.00 to 7.00 | 7.00 to 8.00 | 
CC(=O)N[C@@H](CC(C)C)C(=O)N[C@H](C(=O)N[C@@H](Cc1ccc(F)c(F)c1)C(=O)N[C@]1(C)CCCCCCC=CCCC[C@@](C)(C(=O)N[C@@H](CO)C(=O)N[C@@H](C)C(=O)N[C@@H](C)C(N)=O)NC(=O)[C@H](CC2CCC2)NC(=O)[C@H](CCC(N)=O)NC(=O)[C@H](C)NC(=O)[C@H](Cc2c[nH]c3ccccc23)NC(=O)[C@H](Cc2ccc(O)cc2)NC(=O)[C@H](CCC(=O)O)NC1=O)[C@@H](C)O (single isomer, unassigned) [compound 289] |  |  | 7.00 to 8.00 | 7.00 to 8.00 | 
CC(=O)N[C@@H](CC(C)C)C(=O)N[C@H](C(=O)N[C@@H](Cc1ccccc1)C(=O)N[C@]1(C)CCCCCCC=CCCC[C@@](C)(C(=O)N[C@@H](C)C(=O)N[C@@H](C)C(=O)N[C@@H](C)C(=O)N[C@@H](C)C(=O)N[C@H](C)C(N)=O)NC(=O)[C@H](CCC(C)C)NC(=O)[C@H](CCC(N)=O)NC(=O)[C@H](C)NC(=O)[C@H](Cc2c[nH]c3ccccc23)NC(=O)[C@H](Cc2ccc(O)cc2)NC(=O)[C@H](C)NC1=O)[C@@H](C)O (single isomer, unassigned) [compound 313] |  |  | 6.00 to 7.00 | 7.00 to 8.00 | 
CC(=O)N[C@@H](CC(C)C)C(=O)N[C@H](C(=O)N[C@@H](Cc1ccccc1)C(=O)N[C@]1(C)CCCCCCC=CCCC[C@@](C)(C(=O)N[C@@H](C)C(=O)N[C@@H](C)C(=O)N[C@@H](C)C(=O)N[C@@H](C)C(=O)N[C@H](C)C(N)=O)NC(=O)[C@H](CCC(C)C)NC(=O)[C@H](CCC(N)=O)NC(=O)[C@H](C)NC(=O)[C@H](Cc2c[nH]c3ccccc23)NC(=O)[C@H](Cc2ccc(O)cc2)NC(=O)[C@H](C)NC1=O)[C@@H](C)O (single isomer, unassigned) [compound 314] |  |  | 7.00 to 8.00 | > 8.00 | 
CCCC[C@H](NC(=O)C(C)(C)NC(=O)[C@H](C)NC(=O)[C@]1(C)CCCC=CCCCCCC[C@@](C)(NC(=O)[C@H](Cc2ccccc2)NC(=O)[C@@H](NC(=O)[C@H](CC(C)C)NC(C)=O)[C@@H](C)O)C(=O)N[C@@H](C)C(=O)N[C@@H](Cc2ccc(O)cc2)C(=O)N[C@@H](Cc2c[nH]c3ccccc23)C(=O)N[C@@H](C)C(=O)N[C@@H](CCC(N)=O)C(=O)N[C@@H](CC(C)C)C(=O)N1)C(=O)N[C@@H](C)C(N)=O (single isomer, unassigned) [compound 392] | 7.00 to 8.00 | > 8.00 |  |  | 
CCCC[C@H](NC(=O)CN(C)C(=O)[C@H](C)NC(=O)[C@]1(C)CCCC=CCCCCCC[C@@](C)(NC(=O)[C@H](Cc2ccccc2)NC(=O)[C@@H](NC(=O)[C@H](CC(C)C)NC(C)=O)[C@@H](C)O)C(=O)N[C@@H](C)C(=O)N[C@@H](Cc2ccc(O)cc2)C(=O)N[C@@H](Cc2c[nH]c3ccccc23)C(=O)N[C@@H](C)C(=O)N[C@@H](CCC(N)=O)C(=O)N[C@@H](CC(C)C)C(=O)N1)C(=O)N[C@@H](C)C(N)=O (single isomer, unassigned) [compound 396] | > 8.00 | > 8.00 |  |  | 
CC(=O)N[C@@H](CC(C)C)C(=O)N[C@H](C(=O)N[C@@H](Cc1ccccc1)C(=O)N[C@]1(C)CCCCCCC=CCCC[C@@](C)(C(=O)N[C@@H](C)C(=O)N[C@@H](C)C(=O)N[C@@H](C)C(=O)N[C@@H](C)C(=O)NC(C)(C)C(=O)N[C@H](C)C(N)=O)NC(=O)[C@H](CC(C)C)NC(=O)[C@H](CCC(N)=O)NC(=O)[C@H](C)NC(=O)[C@H](Cc2c[nH]c3ccccc23)NC(=O)[C@H](Cc2ccc(O)cc2)NC(=O)[C@H](CCC(=O)O)NC1=O)[C@@H](C)O (single isomer, unassigned) [compound 565] |  | 7.00 to 8.00 |  |  | 
CC(=O)N[C@@H](CC(C)C)C(=O)N[C@H](C(=O)N[C@@H](Cc1ccccc1)C(=O)N[C@]1(C)CCCCCCC=CCCC[C@@](C)(C(=O)N[C@@H](C)C(=O)N[C@@H](C)C(=O)N[C@@H](C)C(=O)N[C@@H](C)C(=O)NC(C)(C)C(=O)N[C@H](C)C(N)=O)NC(=O)[C@H](CC(C)C)NC(=O)[C@H](CCC(N)=O)NC(=O)[C@H](C)NC(=O)[C@H](Cc2c[nH]c3ccccc23)NC(=O)[C@H](Cc2ccc(O)cc2)NC(=O)[C@H](CCC(=O)O)NC1=O)[C@@H](C)O (single isomer, unassigned) [compound 566] |  | > 8.00 |  |  | 
CCCCCCCCCC(=O)N[C@@H](CC(C)C)C(=O)N[C@H](C(=O)N[C@@H](Cc1ccccc1)C(=O)N[C@]1(C)CCCCCCC=CCCC[C@@](C)(C(=O)N[C@@H](CO)C(=O)N[C@@H](C)C(=O)N[C@@H](C)C(N)=O)NC(=O)[C@H](CCC(C)C)NC(=O)[C@H](CCC(N)=O)NC(=O)[C@H](C)NC(=O)[C@H](Cc2c[nH]c3ccccc23)NC(=O)[C@H](Cc2ccc(O)cc2)NC(=O)[C@H](CCC(=O)O)NC1=O)[C@@H](C)O [compound 282] |  |  | < 6.00 | < 6.00 | 
CC(=O)N[C@@H](CC(C)C)C(=O)N[C@H](C(=O)N[C@@H](Cc1ccccc1)C(=O)N[C@]1(C)CCCCCCC=CCCC[C@@](C)(C(=O)N[C@@H](CO)C(=O)N[C@@H](C)C(=O)N[C@@H](C)C(N)=O)NC(=O)[C@H](CC2CCC2)NC(=O)[C@H](CCC(N)=O)NC(=O)[C@H](C)NC(=O)[C@H](Cc2c[nH]c3cc(Cl)ccc23)NC(=O)[C@H](Cc2ccc(O)cc2)NC(=O)[C@H](CCC(=O)O)NC1=O)[C@@H](C)O [compound 332] |  |  | 7.00 to 8.00 | > 8.00 | 
CC(C)C[C@H](NC(=O)CN(C)C)C(=O)N[C@H](C(=O)N[C@@H](Cc1ccccc1)C(=O)N[C@]1(C)CCCCCCC=CCCC[C@@](C)(C(=O)N[C@@H](CO)C(=O)N[C@@H](C)C(=O)N[C@@H](C)C(N)=O)NC(=O)[C@H](CC2CCC2)NC(=O)[C@H](CCC(N)=O)NC(=O)[C@H](C)NC(=O)[C@H](Cc2c[nH]c3ccccc23)NC(=O)[C@H](Cc2ccc(O)cc2)NC(=O)[C@H](CCC(=O)O)NC1=O)[C@@H](C)O [compound 435] |  |  | 7.00 to 8.00 | > 8.00 | 
CC(=O)N[C@@H](CC(C)C)C(=O)N[C@H](C(=O)N[C@@H](Cc1ccccc1)C(=O)N[C@]1(C)CCCCCCC=CCCC[C@@](C)(C(=O)N[C@H](C)C(N)=O)NC(=O)[C@H](CC(C)C)NC(=O)[C@H](CCC(N)=O)NC(=O)[C@H](C)NC(=O)[C@H](Cc2c[nH]c3ccccc23)NC(=O)[C@H](Cc2ccc(O)cc2)NC(=O)[C@H](CCC(=O)O)NC1=O)[C@@H](C)O [compound 589] (Ac-LTF[R8]EYWAQL[S5][dA]-NH2; staple 4-11) |  |  |  |  | > 8.00
CC(=O)N[C@@H](CC(C)C)C(=O)N[C@H](C(=O)N[C@@H](Cc1ccccc1)C(=O)N[C@]1(C)CCCCCCC=CCCC[C@@](C)(C(=O)N[C@@H](CO)C(N)=O)NC(=O)[C@H](CC2CCC2)NC(=O)[C@H](CCC(N)=O)NC(=O)[C@H](C)NC(=O)[C@H](Cc2c[nH]c3ccccc23)NC(=O)[C@H](Cc2ccc(O)cc2)NC(=O)[C@H](CCC(=O)O)NC1=O)[C@@H](C)O [compound 595] (Ac-LTF[R8]EYWAQ[Cba][S5]S-NH2; staple 4-11) |  | < 6.00 |  |  | 
CC(C)C[C@H](NC(=O)c1ccc(F)cc1)C(=O)N[C@H](C(=O)N[C@@H](Cc1ccccc1)C(=O)N[C@]1(C)CCCCCCC=CCCC[C@@](C)(C(=O)N[C@@H](CO)C(=O)N[C@@H](C)C(=O)N[C@@H](C)C(N)=O)NC(=O)[C@H](CC2CCC2)NC(=O)[C@H](CCC(N)=O)NC(=O)[C@H](C)NC(=O)[C@H](Cc2c[nH]c3ccccc23)NC(=O)[C@H](Cc2ccc(O)cc2)NC(=O)[C@H](CCC(=O)O)NC1=O)[C@@H](C)O [compound 597] |  |  |  | 7.00 to 8.00 | 
CC(C)C[C@H](NC(=O)CCNC(=O)c1ccc2c(c1)C(=O)OC21c2ccc(N(C)C)cc2Oc2cc(N(C)C)ccc21)C(=O)N[C@H](C(=O)N[C@@H](Cc1ccccc1)C(=O)N[C@]1(C)CCCCCCC=CCCC[C@@](C)(C(=O)N[C@@H](CO)C(=O)N[C@@H](C)C(=O)N[C@@H](C)C(N)=O)NC(=O)[C@H](CC2CCC2)NC(=O)[C@H](CCC(N)=O)NC(=O)[C@H](C)NC(=O)[C@H](Cc2c[nH]c3ccccc23)NC(=O)[C@H](Cc2ccc(O)cc2)NC(=O)[C@H](CCC(=O)O)NC1=O)[C@@H](C)O [compound 686] |  |  |  | 7.00 to 8.00 | 
